In ChEMBL document CHEMBL3991601, “The target landscape of clinical kinase drugs” (Science, 2017):
Active and inactive are the calls of the source. Rule as the data show it, for most assays here: actives have a measured Kd and inactives only a lower limit.

Molecular target: T1, Activin receptor type-1 (Homo sapiens, UniProt Q04771)
T1 sequence (Q04771 whole entry): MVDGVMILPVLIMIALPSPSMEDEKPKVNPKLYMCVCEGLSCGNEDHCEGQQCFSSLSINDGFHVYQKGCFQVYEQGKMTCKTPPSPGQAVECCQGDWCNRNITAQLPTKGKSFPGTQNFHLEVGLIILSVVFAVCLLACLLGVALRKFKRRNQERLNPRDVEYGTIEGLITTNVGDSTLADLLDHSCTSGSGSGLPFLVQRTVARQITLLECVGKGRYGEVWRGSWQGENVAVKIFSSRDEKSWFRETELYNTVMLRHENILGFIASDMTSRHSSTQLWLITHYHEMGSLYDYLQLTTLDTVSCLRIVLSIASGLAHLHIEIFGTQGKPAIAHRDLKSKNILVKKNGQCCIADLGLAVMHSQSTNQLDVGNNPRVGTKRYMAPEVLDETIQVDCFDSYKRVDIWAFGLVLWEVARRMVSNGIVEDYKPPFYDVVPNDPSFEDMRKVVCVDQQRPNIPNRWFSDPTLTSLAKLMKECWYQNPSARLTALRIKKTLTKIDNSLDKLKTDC
Also: in the data inactive means no Kd found up to 30 µM.

| Structure (SMILES) | Kd |
| --- | --- |
| O=C(O)[C@]1(Cc2cccc(Nc3nccs3)n2)CC[C@@H](Oc2cccc(Cl)c2F)CC1 [MK-5108] | 0.121 µM (active) |
| C1=C/COCc2cc(ccc2OCCN2CCCC2)Nc2nccc(n2)-c2cccc(c2)COC/1 [PACRITINIB] | 0.022 µM (active) |
| Cc1ccc(-n2nc(C(C)(C)C)cc2NC(=O)NCc2cc(F)ccc2Oc2ccc3c(cnn3CCO)c2)cc1 [PEXMETINIB] | > 30 µM (inactive) |

Molecular target: T2, cGMP-dependent protein kinase 1 (Homo sapiens, UniProt Q13976)
T2 sequence (Q13976 whole entry): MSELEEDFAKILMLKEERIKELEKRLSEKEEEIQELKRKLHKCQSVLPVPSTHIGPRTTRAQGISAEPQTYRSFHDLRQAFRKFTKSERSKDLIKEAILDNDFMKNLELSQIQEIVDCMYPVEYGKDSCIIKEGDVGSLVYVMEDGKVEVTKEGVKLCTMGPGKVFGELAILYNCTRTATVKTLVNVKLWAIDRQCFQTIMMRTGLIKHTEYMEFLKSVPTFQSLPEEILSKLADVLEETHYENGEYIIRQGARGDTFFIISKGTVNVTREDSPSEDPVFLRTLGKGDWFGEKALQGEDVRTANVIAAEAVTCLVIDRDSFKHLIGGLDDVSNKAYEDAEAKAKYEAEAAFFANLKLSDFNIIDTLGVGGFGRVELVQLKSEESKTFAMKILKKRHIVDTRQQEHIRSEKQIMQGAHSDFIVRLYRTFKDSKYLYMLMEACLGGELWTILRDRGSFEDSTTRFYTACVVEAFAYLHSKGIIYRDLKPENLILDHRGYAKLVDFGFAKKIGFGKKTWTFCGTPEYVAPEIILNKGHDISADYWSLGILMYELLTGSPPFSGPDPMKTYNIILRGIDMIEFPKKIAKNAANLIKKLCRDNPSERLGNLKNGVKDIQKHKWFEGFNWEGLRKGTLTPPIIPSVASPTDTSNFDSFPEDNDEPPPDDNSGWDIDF

| Structure (SMILES) | Kd |
| --- | --- |
| O=C(O)[C@]1(Cc2cccc(Nc3nccs3)n2)CC[C@@H](Oc2cccc(Cl)c2F)CC1 [MK-5108] | > 30 µM (inactive) |
| C1=C/COCc2cc(ccc2OCCN2CCCC2)Nc2nccc(n2)-c2cccc(c2)COC/1 [PACRITINIB] | 1.52 µM (active) |
| Cc1ccc(-n2nc(C(C)(C)C)cc2NC(=O)NCc2cc(F)ccc2Oc2ccc3c(cnn3CCO)c2)cc1 [PEXMETINIB] | > 30 µM (inactive) |

Molecular target: T3, Interleukin-1 receptor-associated kinase 4 (Homo sapiens, UniProt Q9NWZ3)
T3 sequence (Q9NWZ3 whole entry): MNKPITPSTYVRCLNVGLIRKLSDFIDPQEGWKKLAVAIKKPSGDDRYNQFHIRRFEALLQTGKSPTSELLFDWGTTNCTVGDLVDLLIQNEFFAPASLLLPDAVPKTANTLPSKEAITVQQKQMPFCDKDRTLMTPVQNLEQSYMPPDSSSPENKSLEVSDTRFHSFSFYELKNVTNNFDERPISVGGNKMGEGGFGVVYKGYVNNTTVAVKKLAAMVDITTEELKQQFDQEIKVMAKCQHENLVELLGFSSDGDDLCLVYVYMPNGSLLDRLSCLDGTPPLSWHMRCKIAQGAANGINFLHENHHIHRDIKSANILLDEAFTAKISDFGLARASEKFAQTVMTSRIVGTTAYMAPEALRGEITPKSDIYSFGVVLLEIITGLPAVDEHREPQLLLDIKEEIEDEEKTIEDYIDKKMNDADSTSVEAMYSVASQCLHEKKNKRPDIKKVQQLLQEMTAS

| Structure (SMILES) | Kd |
| --- | --- |
| O=C(O)[C@]1(Cc2cccc(Nc3nccs3)n2)CC[C@@H](Oc2cccc(Cl)c2F)CC1 [MK-5108] | > 30 µM (inactive) |
| C1=C/COCc2cc(ccc2OCCN2CCCC2)Nc2nccc(n2)-c2cccc(c2)COC/1 [PACRITINIB] | > 30 µM (inactive) |
| Cc1ccc(-n2nc(C(C)(C)C)cc2NC(=O)NCc2cc(F)ccc2Oc2ccc3c(cnn3CCO)c2)cc1 [PEXMETINIB] | > 30 µM (inactive) |

Molecular target: Serine/threonine-protein kinase N2 (Homo sapiens, UniProt Q16513)
Sequence (Q16513 whole entry): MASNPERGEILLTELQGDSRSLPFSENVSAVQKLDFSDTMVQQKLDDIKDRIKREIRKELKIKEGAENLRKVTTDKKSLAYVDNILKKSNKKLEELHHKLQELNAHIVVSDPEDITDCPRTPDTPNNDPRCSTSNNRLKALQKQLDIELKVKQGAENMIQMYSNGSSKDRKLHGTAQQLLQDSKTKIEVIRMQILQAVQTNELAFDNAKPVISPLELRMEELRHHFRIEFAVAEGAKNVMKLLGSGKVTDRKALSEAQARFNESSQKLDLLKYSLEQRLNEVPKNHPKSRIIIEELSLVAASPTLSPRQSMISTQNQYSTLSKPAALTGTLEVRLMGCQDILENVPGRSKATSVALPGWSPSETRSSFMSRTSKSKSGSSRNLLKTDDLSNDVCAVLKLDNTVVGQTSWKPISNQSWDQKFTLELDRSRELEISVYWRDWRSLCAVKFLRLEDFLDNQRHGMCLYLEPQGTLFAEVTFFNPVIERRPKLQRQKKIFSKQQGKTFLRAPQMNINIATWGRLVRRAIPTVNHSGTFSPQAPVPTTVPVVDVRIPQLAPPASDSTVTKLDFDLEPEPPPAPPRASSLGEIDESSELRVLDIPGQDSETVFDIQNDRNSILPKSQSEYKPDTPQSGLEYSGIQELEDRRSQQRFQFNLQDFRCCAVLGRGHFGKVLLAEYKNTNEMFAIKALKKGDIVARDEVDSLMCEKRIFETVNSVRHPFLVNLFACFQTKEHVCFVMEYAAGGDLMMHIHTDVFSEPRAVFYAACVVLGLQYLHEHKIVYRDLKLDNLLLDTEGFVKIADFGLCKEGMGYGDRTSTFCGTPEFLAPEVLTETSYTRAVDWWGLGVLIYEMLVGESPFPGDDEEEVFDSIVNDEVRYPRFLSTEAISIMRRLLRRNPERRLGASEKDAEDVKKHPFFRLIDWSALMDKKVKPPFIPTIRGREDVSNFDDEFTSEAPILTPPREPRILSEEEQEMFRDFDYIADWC

| Structure (SMILES) | Kd |
| --- | --- |
| O=C(O)[C@]1(Cc2cccc(Nc3nccs3)n2)CC[C@@H](Oc2cccc(Cl)c2F)CC1 [MK-5108] | > 30 µM (inactive) |
| C1=C/COCc2cc(ccc2OCCN2CCCC2)Nc2nccc(n2)-c2cccc(c2)COC/1 [PACRITINIB] | > 30 µM (inactive) |
| Cc1ccc(-n2nc(C(C)(C)C)cc2NC(=O)NCc2cc(F)ccc2Oc2ccc3c(cnn3CCO)c2)cc1 [PEXMETINIB] | > 30 µM (inactive) |

Molecular target: BMP-2-inducible protein kinase (Homo sapiens, UniProt Q9NSY1)
Sequence (Q9NSY1 whole entry): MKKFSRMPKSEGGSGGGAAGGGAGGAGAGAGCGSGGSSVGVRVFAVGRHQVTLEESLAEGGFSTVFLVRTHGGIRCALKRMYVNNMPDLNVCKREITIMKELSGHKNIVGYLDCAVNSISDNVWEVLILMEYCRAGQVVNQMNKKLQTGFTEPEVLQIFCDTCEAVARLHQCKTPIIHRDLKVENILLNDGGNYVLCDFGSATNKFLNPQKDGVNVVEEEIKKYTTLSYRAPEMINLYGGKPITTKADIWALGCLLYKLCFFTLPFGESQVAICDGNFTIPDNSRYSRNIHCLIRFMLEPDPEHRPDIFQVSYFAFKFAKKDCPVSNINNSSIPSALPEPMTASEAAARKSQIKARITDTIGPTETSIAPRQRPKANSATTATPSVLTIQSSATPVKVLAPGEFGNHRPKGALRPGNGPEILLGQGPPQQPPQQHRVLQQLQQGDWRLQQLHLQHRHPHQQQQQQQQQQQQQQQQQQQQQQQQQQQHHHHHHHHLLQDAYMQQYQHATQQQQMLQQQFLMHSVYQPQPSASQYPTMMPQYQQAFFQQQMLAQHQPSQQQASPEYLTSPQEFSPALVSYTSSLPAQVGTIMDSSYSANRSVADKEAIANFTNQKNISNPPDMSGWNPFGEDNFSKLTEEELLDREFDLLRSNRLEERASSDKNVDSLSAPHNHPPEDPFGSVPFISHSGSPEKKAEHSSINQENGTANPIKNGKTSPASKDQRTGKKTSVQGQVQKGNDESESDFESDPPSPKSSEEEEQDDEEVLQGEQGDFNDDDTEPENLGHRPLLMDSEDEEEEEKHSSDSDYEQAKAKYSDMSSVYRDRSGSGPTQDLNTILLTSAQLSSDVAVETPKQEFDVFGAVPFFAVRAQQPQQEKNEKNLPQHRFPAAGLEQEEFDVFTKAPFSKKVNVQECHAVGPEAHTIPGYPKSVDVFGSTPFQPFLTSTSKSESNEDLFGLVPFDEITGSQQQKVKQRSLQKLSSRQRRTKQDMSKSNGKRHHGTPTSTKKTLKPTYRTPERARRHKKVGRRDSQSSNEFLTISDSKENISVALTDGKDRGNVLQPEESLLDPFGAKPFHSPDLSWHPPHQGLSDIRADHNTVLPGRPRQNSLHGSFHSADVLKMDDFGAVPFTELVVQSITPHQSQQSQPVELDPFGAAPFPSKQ

| Structure (SMILES) | Kd |
| --- | --- |
| O=C(O)[C@]1(Cc2cccc(Nc3nccs3)n2)CC[C@@H](Oc2cccc(Cl)c2F)CC1 [MK-5108] | > 30 µM (inactive) |
| C1=C/COCc2cc(ccc2OCCN2CCCC2)Nc2nccc(n2)-c2cccc(c2)COC/1 [PACRITINIB] | 0.039 µM (active) |
| Cc1ccc(-n2nc(C(C)(C)C)cc2NC(=O)NCc2cc(F)ccc2Oc2ccc3c(cnn3CCO)c2)cc1 [PEXMETINIB] | > 30 µM (inactive) |

Molecular target: Tyrosine-protein kinase ABL1 (Homo sapiens, UniProt P00519)

| Structure (SMILES) | Kd |
| --- | --- |
| O=C(O)[C@]1(Cc2cccc(Nc3nccs3)n2)CC[C@@H](Oc2cccc(Cl)c2F)CC1 [MK-5108] | 0.062 µM (active) |
| C1=C/COCc2cc(ccc2OCCN2CCCC2)Nc2nccc(n2)-c2cccc(c2)COC/1 [PACRITINIB] | > 30 µM (inactive) |
| Cc1ccc(-n2nc(C(C)(C)C)cc2NC(=O)NCc2cc(F)ccc2Oc2ccc3c(cnn3CCO)c2)cc1 [PEXMETINIB] | 0.211 µM (active) |

Molecular target: T4, Exosome RNA helicase MTR4 (Homo sapiens, UniProt P42285)
T4 sequence (P42285 whole entry): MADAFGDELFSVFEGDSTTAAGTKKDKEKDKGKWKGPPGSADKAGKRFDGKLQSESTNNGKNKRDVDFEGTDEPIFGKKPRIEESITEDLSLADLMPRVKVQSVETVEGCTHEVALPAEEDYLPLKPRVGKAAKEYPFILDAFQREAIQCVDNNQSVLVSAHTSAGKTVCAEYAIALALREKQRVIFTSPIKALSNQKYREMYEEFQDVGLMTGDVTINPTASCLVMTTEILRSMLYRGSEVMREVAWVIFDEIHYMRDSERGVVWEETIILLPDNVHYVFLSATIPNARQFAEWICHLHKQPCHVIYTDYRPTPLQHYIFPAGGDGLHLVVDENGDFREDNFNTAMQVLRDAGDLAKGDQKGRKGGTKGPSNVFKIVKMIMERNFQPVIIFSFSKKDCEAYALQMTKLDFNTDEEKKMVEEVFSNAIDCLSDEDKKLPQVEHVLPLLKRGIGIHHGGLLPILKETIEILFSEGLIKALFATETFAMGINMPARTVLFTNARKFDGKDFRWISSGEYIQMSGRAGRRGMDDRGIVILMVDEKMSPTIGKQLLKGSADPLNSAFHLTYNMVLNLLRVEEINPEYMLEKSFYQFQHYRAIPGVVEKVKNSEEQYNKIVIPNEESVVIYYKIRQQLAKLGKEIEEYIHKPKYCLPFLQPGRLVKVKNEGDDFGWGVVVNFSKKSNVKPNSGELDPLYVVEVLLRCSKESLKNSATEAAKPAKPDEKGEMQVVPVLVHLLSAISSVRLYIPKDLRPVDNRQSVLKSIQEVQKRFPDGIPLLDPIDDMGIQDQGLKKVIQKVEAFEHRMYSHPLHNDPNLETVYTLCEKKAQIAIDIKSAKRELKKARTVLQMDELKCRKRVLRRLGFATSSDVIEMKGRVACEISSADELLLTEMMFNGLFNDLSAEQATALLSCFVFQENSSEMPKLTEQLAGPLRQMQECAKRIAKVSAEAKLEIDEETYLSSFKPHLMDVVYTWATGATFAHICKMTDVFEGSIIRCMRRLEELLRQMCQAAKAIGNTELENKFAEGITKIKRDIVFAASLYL

| Structure (SMILES) | Kd |
| --- | --- |
| O=C(O)[C@]1(Cc2cccc(Nc3nccs3)n2)CC[C@@H](Oc2cccc(Cl)c2F)CC1 [MK-5108] | > 30 µM (inactive) |
| C1=C/COCc2cc(ccc2OCCN2CCCC2)Nc2nccc(n2)-c2cccc(c2)COC/1 [PACRITINIB] | > 30 µM (inactive) |
| Cc1ccc(-n2nc(C(C)(C)C)cc2NC(=O)NCc2cc(F)ccc2Oc2ccc3c(cnn3CCO)c2)cc1 [PEXMETINIB] | > 30 µM (inactive) |

Molecular target: Ephrin type-A receptor 4 (Homo sapiens, UniProt P54764)
Sequence (P54764 whole entry): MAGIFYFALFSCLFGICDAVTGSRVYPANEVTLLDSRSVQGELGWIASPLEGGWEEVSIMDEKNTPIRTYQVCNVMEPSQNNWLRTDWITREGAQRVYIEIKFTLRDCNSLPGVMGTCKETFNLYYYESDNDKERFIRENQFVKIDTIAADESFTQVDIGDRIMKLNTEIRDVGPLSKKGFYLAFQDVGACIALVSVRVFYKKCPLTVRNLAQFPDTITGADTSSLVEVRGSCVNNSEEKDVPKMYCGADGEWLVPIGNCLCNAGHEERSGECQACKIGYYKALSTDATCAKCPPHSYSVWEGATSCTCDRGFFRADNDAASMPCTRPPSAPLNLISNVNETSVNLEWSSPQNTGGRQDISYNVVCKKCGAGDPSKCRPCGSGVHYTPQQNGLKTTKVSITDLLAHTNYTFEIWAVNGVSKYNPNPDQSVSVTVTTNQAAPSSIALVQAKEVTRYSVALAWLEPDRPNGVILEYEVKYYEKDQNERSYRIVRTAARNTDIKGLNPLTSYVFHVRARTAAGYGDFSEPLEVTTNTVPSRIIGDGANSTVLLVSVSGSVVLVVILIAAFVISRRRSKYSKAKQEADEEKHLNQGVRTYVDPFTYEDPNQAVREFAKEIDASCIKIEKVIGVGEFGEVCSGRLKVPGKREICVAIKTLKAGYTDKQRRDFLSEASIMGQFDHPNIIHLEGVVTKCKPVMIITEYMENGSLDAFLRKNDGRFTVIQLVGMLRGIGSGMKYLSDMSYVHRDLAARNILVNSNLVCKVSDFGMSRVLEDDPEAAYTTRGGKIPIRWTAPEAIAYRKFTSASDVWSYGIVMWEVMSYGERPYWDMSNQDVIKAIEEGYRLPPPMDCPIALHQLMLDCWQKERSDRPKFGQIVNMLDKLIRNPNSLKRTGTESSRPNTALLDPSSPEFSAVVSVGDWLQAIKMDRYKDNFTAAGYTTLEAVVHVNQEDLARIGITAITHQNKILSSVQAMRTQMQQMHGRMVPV

| Structure (SMILES) | Kd |
| --- | --- |
| O=C(O)[C@]1(Cc2cccc(Nc3nccs3)n2)CC[C@@H](Oc2cccc(Cl)c2F)CC1 [MK-5108] | > 30 µM (inactive) |
| C1=C/COCc2cc(ccc2OCCN2CCCC2)Nc2nccc(n2)-c2cccc(c2)COC/1 [PACRITINIB] | > 30 µM (inactive) |
| Cc1ccc(-n2nc(C(C)(C)C)cc2NC(=O)NCc2cc(F)ccc2Oc2ccc3c(cnn3CCO)c2)cc1 [PEXMETINIB] | > 30 µM (inactive) |

Molecular target: Serine/threonine-protein kinase PAK 4 (Homo sapiens, UniProt O96013)
Sequence (O96013 whole entry): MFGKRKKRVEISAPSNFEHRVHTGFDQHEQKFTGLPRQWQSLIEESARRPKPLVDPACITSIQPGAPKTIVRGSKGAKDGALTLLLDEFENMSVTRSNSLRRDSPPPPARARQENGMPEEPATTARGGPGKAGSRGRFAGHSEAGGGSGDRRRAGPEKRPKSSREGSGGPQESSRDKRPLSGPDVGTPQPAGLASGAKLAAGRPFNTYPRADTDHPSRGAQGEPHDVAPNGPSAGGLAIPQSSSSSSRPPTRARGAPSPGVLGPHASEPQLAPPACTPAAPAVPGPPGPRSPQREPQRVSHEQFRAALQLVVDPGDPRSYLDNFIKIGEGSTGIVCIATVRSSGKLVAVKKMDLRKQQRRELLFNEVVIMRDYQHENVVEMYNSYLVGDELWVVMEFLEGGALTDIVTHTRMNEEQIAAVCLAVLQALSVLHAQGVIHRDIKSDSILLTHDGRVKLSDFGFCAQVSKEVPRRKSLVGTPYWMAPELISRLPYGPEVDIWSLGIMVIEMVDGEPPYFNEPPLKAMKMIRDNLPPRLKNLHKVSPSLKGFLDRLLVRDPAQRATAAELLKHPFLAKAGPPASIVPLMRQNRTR

| Structure (SMILES) | Kd |
| --- | --- |
| O=C(O)[C@]1(Cc2cccc(Nc3nccs3)n2)CC[C@@H](Oc2cccc(Cl)c2F)CC1 [MK-5108] | > 30 µM (inactive) |
| C1=C/COCc2cc(ccc2OCCN2CCCC2)Nc2nccc(n2)-c2cccc(c2)COC/1 [PACRITINIB] | > 30 µM (inactive) |
| Cc1ccc(-n2nc(C(C)(C)C)cc2NC(=O)NCc2cc(F)ccc2Oc2ccc3c(cnn3CCO)c2)cc1 [PEXMETINIB] | > 30 µM (inactive) |

Molecular target: Tyrosine-protein kinase Lck (Homo sapiens, UniProt P06239)
Sequence (P06239 whole entry): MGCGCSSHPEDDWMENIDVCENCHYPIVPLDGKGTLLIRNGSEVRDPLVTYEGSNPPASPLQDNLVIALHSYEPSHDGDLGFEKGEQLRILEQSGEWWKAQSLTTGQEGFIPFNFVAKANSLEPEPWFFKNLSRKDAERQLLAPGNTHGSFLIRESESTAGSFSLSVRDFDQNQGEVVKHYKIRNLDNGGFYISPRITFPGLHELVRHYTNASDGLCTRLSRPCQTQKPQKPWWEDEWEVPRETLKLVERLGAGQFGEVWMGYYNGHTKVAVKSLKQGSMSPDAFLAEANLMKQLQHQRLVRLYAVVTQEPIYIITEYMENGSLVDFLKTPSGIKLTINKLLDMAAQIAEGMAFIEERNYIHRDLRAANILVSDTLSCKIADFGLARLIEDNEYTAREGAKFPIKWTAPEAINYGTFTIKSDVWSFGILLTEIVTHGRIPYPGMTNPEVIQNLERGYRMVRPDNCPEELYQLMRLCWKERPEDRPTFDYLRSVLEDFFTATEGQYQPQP

| Structure (SMILES) | Kd |
| --- | --- |
| O=C(O)[C@]1(Cc2cccc(Nc3nccs3)n2)CC[C@@H](Oc2cccc(Cl)c2F)CC1 [MK-5108] | > 30 µM (inactive) |
| C1=C/COCc2cc(ccc2OCCN2CCCC2)Nc2nccc(n2)-c2cccc(c2)COC/1 [PACRITINIB] | 6.54 µM (active) |
| Cc1ccc(-n2nc(C(C)(C)C)cc2NC(=O)NCc2cc(F)ccc2Oc2ccc3c(cnn3CCO)c2)cc1 [PEXMETINIB] | > 30 µM (inactive) |
